Source: US11026943B2, “Aminoquinoline derivatives and uses thereof” (UNIVERSITY OF DELHI, priority 2012, dated 2021)
Like-named read-outs stand apart in the source and are kept apart here. Values belong to the molecule of their own block, whether it stands above or below them.

How the values were obtained:
LLC-PK-1 cells = assay: In vitro cytotoxicity to mammalian cells, LLC-PK-1; assay type: cell-based; settings: Sus scrofa, LLC-PK1
Source text: (§1) Med. Chem. 2005, 13, 4458; Khan, I. A. Lipids 2004, 37, 169].

[1] = test system: CQ-sensitive (D6 clone) strain of P. falciparum; assay: In vitro antimalarial activity, CQ-sensitive strain; assay type: cell-based, Plasmodium falciparum; settings: for IC50: Plasmodium falciparum; for P. falciparum (D6 Clone) S.I.: selectivity index = IC50 cytotoxicity to Vero cells / IC50 antimalarial
Source text: as §1

[2] = test system: CQ-resistant (W2 clone) strain of P. falciparum; assay: In vitro antimalarial activity, CQ-resistant strain; assay type: cell-based, Plasmodium falciparum; settings: for IC50: Plasmodium falciparum; for P. falciparum (W2 Clone) S.I.: selectivity index = IC50 cytotoxicity to Vero cells / IC50 antimalarial
Source text: as §1

VERO cells = assay: In vitro cytotoxicity to mammalian cells, VERO; assay type: cell-based; settings: Chlorocebus sabaeus, Vero; in vitro cytotoxicity to mammalian cells
Source text: as §1

HepG2 cells = assay: In vitro cytotoxicity to mammalian cells, HepG2; assay type: cell-based; settings: Homo sapiens
Source text: as §1

parasitemia = assay: In-vivo antimalarial activity in mice
[3] = Solubility (solvent listed in compound tables); assay type: physicochemical
[4] = CQ-sensitive D6 clone, read-out: P. falciparum (D6 Clone) IC50
[5] = CQ-resistant W2 clone, read-out: P. falciparum (W2 Clone) IC50
[6] = mice, PO, 100 mg/kg × 3 days post-infection
[7] = solvents listed for the compound

SMILES: Cc1cc(NCCCCNc2ccnc3cc(Cl)ccc23)nc(Cl)n1 [10c]
IC50 (LLC-PK-1 cells): > 60 µM | IC50 [1, 4]: 0.151 µM | P. falciparum (D6 Clone) S.I. [1]: (>398) | IC50 [2, 5]: 0.69 µM | P. falciparum (W2 Clone) S.I. [2]: (>87) | IC50 (VERO cells): > 60 µM | IC50 (HepG2 cells): > 60 µM

SMILES: CCN(CC)CCCC(C)Nc1ccnc2cc(Cl)ccc12 (centres unmarked) [Chloroquine, chloroquine, reference compound]
parasitemia suppression (parasitemia; day 5, 100 mg/kg for 3 days post infection, standard drug): 100% | Cure (number of mice without parasitemia till day 28 post-infection) (parasitemia; [6]): 0/5 | MST (mean survival time) (parasitemia; [6]): 28 days | % Parasitemia suppression Day 5 (parasitemia; mice, PO, 100 mg/kg × 3 days post-infection, day 5): 100.00% | % Parasitemia suppression Day 7 (parasitemia; mice, PO, 100 mg/kg × 3 days post-infection, day 7): 100.00% | Survival (animals that survived day 28/total animals in group) (parasitemia; mice, PO, 100 mg/kg × 3 days post-infection, day 28): 5/5 | Day of Death (parasitemia; mice, PO, 100 mg/kg × 3 days post-infection, per animal): 28/28/28/28/28 | IC50 ([1]; D6, read-out: P. falciparum (D6 Clone) IC50 (μM)): 0.048 µM | P. falciparum (D6 Clone) S.I. [1]: 1250 | IC50 ([2]; W2, read-out: P. falciparum (W2 Clone) IC50 (μM)): 0.43 µM | P. falciparum (W2 Clone) S.I. [2]: 140

SMILES: Cc1cc(NCCCNc2ccnc3cc(Cl)ccc23)nc(Cl)n1 [10b]
IC50 (LLC-PK-1 cells): > 60 µM | IC50 [1, 4]: 0.35 µM | P. falciparum (D6 Clone) S.I. [1]: (>170) | IC50 [2, 5]: 0.74 µM | P. falciparum (W2 Clone) S.I. [2]: (>80) | IC50 (VERO cells): > 60 µM | IC50 (HepG2 cells): > 60 µM

SMILES: COc1cccc2c1C(=O)c1c(O)c3c(c(O)c1C2=O)C[C@@](O)(C(=O)CO)C[C@@H]3O[C@H]1C[C@H](N)[C@H](O)[C@H](C)O1 [Doxorubicin]
IC50 (LLC-PK-1 cells): 1 µM | IC50 (VERO cells): 8.2 µM | IC50 (HepG2 cells): < 1 µM

SMILES: Cc1cc(NCCNc2ccnc3cc(Cl)ccc23)nc(Cl)n1 [10a]
IC50 (LLC-PK-1 cells): > 60 µM | IC50 [1, 4]: 0.21 µM | P. falciparum (D6 Clone) S.I. [1]: (>285) | IC50 [2, 5]: 0.34 µM | P. falciparum (W2 Clone) S.I. [2]: (>176) | IC50 (VERO cells): > 60 µM | IC50 (HepG2 cells): > 60 µM

SMILES: Cc1cc(NCCCCCCNc2ccnc3cc(Cl)ccc23)nc(Cl)n1 [10d]
IC50 (LLC-PK-1 cells): 14.8 µM | IC50 [1, 4]: 0.469 µM | P. falciparum (D6 Clone) S.I. [1]: 73.7 | IC50 [2, 5]: 0.544 µM | P. falciparum (W2 Clone) S.I. [2]: 27.2 | IC50 (VERO cells): 34.6 µM | IC50 (HepG2 cells): 9.3 µM

SMILES: C[C@@H]1CC[C@H]2[C@@H](C)C(=O)O[C@@H]3O[C@@]4(C)CC[C@@H]1[C@]32OO4 [Artemisinine, reference compound]
IC50 [1, 4]: 0.012 µM | P. falciparum (D6 Clone) S.I. [1]: 5000 | IC50 [2, 5]: 0.012 µM | P. falciparum (W2 Clone) S.I. [2]: 5000

SMILES: Cc1cc(NCCCCNc2ccnc3cc(Cl)ccc23)nc(NCCCCCCO)n1 [MT1-196]
SOLUBILITY [3, 7]: MeOH, DMSO

SMILES: Clc1ccc2c(NCCNc3nc(Nc4ccccc4)nc(N4CCOCC4)n3)ccnc2c1 [SM 336]
SOLUBILITY ([3]; solvent named, Table 3): DMSO

SMILES: Cc1ccccc1Nc1nc(NCCNc2ccnc3cc(Cl)ccc23)nc(Nc2ccccc2C)n1 [SM 144]
SOLUBILITY ([3]; solvent named, Table 3): DMSO

SMILES: Cc1cc(N2CCN(c3ccnc4cc(Cl)ccc34)CC2)nc(NC2CCCCC2)n1 [ATH 241]
SOLUBILITY ([3]; solvent named, Table 3): DMSO

SMILES: Cc1cc(NCCNc2ccnc3cc(Cl)ccc23)nc(NCCO)n1 [MT1-185]
SOLUBILITY [3, 7]: MeOH, DMSO

SMILES: OCCCNc1nccc(N2CCN(c3ccnc4cc(Cl)ccc34)CC2)n1 [ATH 255]
SOLUBILITY ([3]; solvent named, Table 3): DMSO

SMILES: Clc1ccc2c(N3CCN(c4ccnc(N5CCCCC5)n4)CC3)ccnc2c1 [ATH 231]
SOLUBILITY ([3]; solvent named, Table 3): DMSO

SMILES: OCCCCCNc1nccc(NCCCCNc2ccnc3cc(Cl)ccc23)n1 [MT1-162]
SOLUBILITY [3, 7]: MeOH, DMSO

SMILES: Cc1cc(NCCCCNc2ccnc3cc(Cl)ccc23)nc(NCCO)n1 [MT1-192]
SOLUBILITY [3, 7]: MeOH, DMSO

SMILES: Cc1cc(NCCCCNc2ccnc3cc(Cl)ccc23)nc(N2CCN(C)CC2)n1 [SM 501]
SOLUBILITY ([3]; solvent named, Table 3): DMSO

SMILES: OCCNc1nccc(NCCCNc2ccnc3cc(Cl)ccc23)n1 [MT1-127]
SOLUBILITY [3, 7]: MeOH, DMSO

SMILES: OCCCNc1nc(NCCCCNc2ccnc3cc(Cl)ccc23)nc(N2CCCCC2)n1 [SM 372]
SOLUBILITY ([3]; solvent named, Table 3): DMSO

SMILES: OCCNc1nc(NCCNc2ccnc3cc(Cl)ccc23)nc(N2CCOCC2)n1 [SM 352]
SOLUBILITY ([3]; solvent named, Table 3): DMSO

SMILES: Clc1ccc2c(NCCCNc3ccnc(N4CCOCC4)n3)ccnc2c1 [SM 721]
SOLUBILITY ([3]; solvent named, Table 3): DMSO

SMILES: OCCCNc1nc(NCCCCNc2ccnc3cc(Cl)ccc23)nc(N2CCOCC2)n1 [SM 349]
SOLUBILITY ([3]; solvent named, Table 3): DMSO

SMILES: Cc1cc(N2CCN(c3ccnc4cc(Cl)ccc34)CC2)nc(N2CCCC2)n1 [ATH 256]
SOLUBILITY ([3]; solvent named, Table 3): DMSO

SMILES: CN1CCN(c2nc(Cl)cc(NCCCNc3ccnc4cc(Cl)ccc34)n2)CC1 [SM 713]
SOLUBILITY ([3]; solvent named, Table 3): DMSO

SMILES: COc1ccc(Nc2nc(NCCNc3c4ccc(Cl)cc4nc4ccc(OC)cc34)nc(N(C)C)n2)cc1 [ATH 165]
SOLUBILITY ([3]; solvent named, Table 3): DMSO

SMILES: Cc1cc(NCCNc2ccnc3cc(Cl)ccc23)nc(NCCCO)n1 [MT1-186]
SOLUBILITY [3, 7]: MeOH, DMSO

SMILES: OCCCCNc1nc(NCCNc2ccnc3cc(Cl)ccc23)nc(N2CCCCC2)n1 [SM 373]
SOLUBILITY ([3]; solvent named, Table 3): DMSO

SMILES: COc1ccc(Nc2nc(NCCCNc3c4ccc(Cl)cc4nc4ccc(OC)cc34)nc(N3CCN(c4ccccc4)CC3)n2)cc1 [ATH 198]
SOLUBILITY ([3]; solvent named, Table 3): DMSO

SMILES: Clc1ccc2c(NCCNc3nc(N4CCOCC4)nc(N4CCOCC4)n3)ccnc2c1 [SM 142]
SOLUBILITY ([3]; solvent named, Table 3): DMSO

SMILES: Clc1ccc2c(NCCNc3nccc(N4CCCCC4)n3)ccnc2c1 [SM 732]
SOLUBILITY ([3]; solvent named, Table 3): DMSO

SMILES: Clc1ccc2c(NCCNc3ccnc(N4CCCCC4)n3)ccnc2c1 [SM 730]
SOLUBILITY ([3]; solvent named, Table 3): DMSO

SMILES: COc1ccc(Nc2nc(NCCCNc3ccnc4cc(Cl)ccc34)nc(N3CCOCC3)n2)cc1 [SM 337]
SOLUBILITY ([3]; solvent named, Table 3): DMSO

SMILES: Clc1ccc2c(NCCCNc3nc(Cl)cc(N4CCCCC4)n3)ccnc2c1 [SM 715]
SOLUBILITY ([3]; solvent named, Table 3): DMSO

SMILES: CCN1CCN(c2nc(Cl)cc(NCCCNc3ccnc4cc(Cl)ccc34)n2)CC1 [SM 714]
SOLUBILITY ([3]; solvent named, Table 3): DMSO

SMILES: COc1ccc(Nc2ccnc(N3CCN(c4ccnc5cc(Cl)ccc45)CC3)n2)cc1 [ATH 220]
SOLUBILITY ([3]; solvent named, Table 3): DMSO

SMILES: CCN1CCN(c2nc(Cl)cc(NCCNc3ccnc4cc(Cl)ccc34)n2)CC1 [SM 702]
SOLUBILITY ([3]; solvent named, Table 3): DMSO

SMILES: Cc1cc(NCCCCNc2ccnc3cc(Cl)ccc23)nc(N2CCCCC2)n1 [SM 499]
SOLUBILITY ([3]; solvent named, Table 3): DMSO

More lines, main results first:

IC50 [1, 4]: 0.27 µM | IC50 [2, 5]: 0.91 µM
SMILES: Cc1cc(Cl)nc(NCCNc2ccnc3cc(Cl)ccc23)n1 [11a]
IC50 (LLC-PK-1 cells): 41.6 µM | P. falciparum (D6 Clone) S.I. [1]: 159.2 | P. falciparum (W2 Clone) S.I. [2]: 47.2 | IC50 (VERO cells): 43 µM | IC50 (HepG2 cells): 43 µM

IC50 [1, 4]: 0.196 µM | IC50 [2, 5]: 0.664 µM
SMILES: Cc1cc(Cl)nc(NCCCCNc2ccnc3cc(Cl)ccc23)n1 [11c]
IC50 (LLC-PK-1 cells): > 60 µM | P. falciparum (D6 Clone) S.I. [1]: (>306) | P. falciparum (W2 Clone) S.I. [2]: (>90) | IC50 (VERO cells): > 60 µM | IC50 (HepG2 cells): 39.8 µM

SOLUBILITY ([3]; solvent named, Table 4): DMSO
SMILES: COc1cc(Nc2ccnc(NCCCCNc3ccnc4cc(Cl)ccc34)n2)cc(OC)c1 [DKG831]

SOLUBILITY ([3]; solvent named, Table 4): DMSO
SMILES: Fc1ccc(Nc2ccnc(NCCCNc3ccnc4cc(Cl)ccc34)n2)cc1 [DKG818]

SOLUBILITY ([3]; solvent named, Table 4): DMSO
SMILES: Cc1cc(Nc2ccccc2)nc(NCCCNc2ccnc3cc(Cl)ccc23)n1 [DKG834]

SOLUBILITY ([3]; solvent named, Table 4): DMSO
SMILES: Fc1ccc(Nc2ccnc(NCCCCNc3ccnc4cc(Cl)ccc34)n2)cc1 [DKG819]

SOLUBILITY ([3]; solvent named, Table 4): DMSO
SMILES: Fc1ccc(Nc2ccnc(NCCNc3ccnc4cc(Cl)ccc34)n2)cc1 [DKG817]

SOLUBILITY ([3]; solvent named, Table 3): DMSO
SMILES: Clc1ccc2c(NCCCNc3nccc(Cl)n3)ccnc2c1 [SM 719B]

SOLUBILITY ([3]; solvent named, Table 4): DMSO
SMILES: COc1ccc(Nc2ccnc(NCCCCNc3ccnc4cc(Cl)ccc34)n2)cc1 [DKG827]

SOLUBILITY ([3]; solvent named, Table 4): DMSO
SMILES: Cc1cc(Nc2ccc(F)cc2)nc(NCCCNc2ccnc3cc(Cl)ccc23)n1 [DKG854]

SOLUBILITY ([3]; solvent named, Table 3): DMSO
SMILES: Cc1cc(NCCCCCCNc2ccnc3cc(Cl)ccc23)nc(Cl)n1 [SM 504A]

SOLUBILITY ([3]; solvent named, Table 4): DMSO
SMILES: Cc1cc(Nc2ccc(F)cc2)nc(NCCCCNc2ccnc3cc(Cl)ccc23)n1 [DKG855]

SOLUBILITY ([3]; solvent named, Table 4): DMSO
SMILES: Clc1ccc2c(NCCNc3nccc(Nc4ccccc4)n3)ccnc2c1 [DKG821]
